Measured values published in US20220280423A1, “GLYMPHATIC DELIVERY BY MANIPULATING PLASMA OSMOLARITY” (University of Rochester, priority 2018, published 2022).
Entries after “also recorded” stand apart in the source; their conditions may differ. Marks after values point to notes of the source that are not given here.

Key:
[1] = Stability of ^111In-LA-DOTA complex in CSF or brain homogenate (radio-TLC); assay type: in vitro ADME, rat; settings: CSF and BH, 37° C., over 48 hours
Method: To obtain CSF and brain homogenate for assessing AuNP stability, rats were anesthetized with subcutaneous ketamine (100 mg/kg) and dexmedetomidine (0.5 mg/kg) and fixed to a stereotaxic frame after verification of loss of response to painful stimuli. The cisterna magna was exposed and CSF was carefully drawn using a syringe and a 30 G needle. The rats were euthanized, the brains were quickly dissected and cut in four quarters. Each quarter was mixed in 5 mL phosphate-buffered saline (PBS) using a homogenizer. Both the CSF and brain homogenates were stored at —80° C. To allow UV-VIS characterization at low radioactivity level, radiolabeled AuNPs were mixed with non-radiolabeled, PEG-coated AuNPs from the same batch (see section 2.2). The gold concentration was the same in both AuNPs samples (0.373 mg/mL). […]
Free ^111In-LA-DOTA: The following mixtures were prepared and analyzed: 1) CSF (30 μL)+^111In-LA-DOTA complex solution (30 μL), 2) Brain homogenate (15 μL)+PBS (15 μL)+^111In-LA-DOTA complex solution (30 μL). […] The mixtures were incubated at 37° C. and samples were analyzed by radio-TLC at 0, 4, 24, and 48 hours. […]

[2] = Head-focused SPECT/CT of ^111In—AuNP or ^111In-LA-DOTA infused to the cisterna magna, 0-3 h; assay type: in vivo, Sprague-Dawley rats; parameters: AUC0-3 h Striatum / AUC0-3 h Thalamus / AUC0-3 h Intracranial / AUC0-3 h Brain / AUC0-3 h Cervical spine / AUC0-3 h Nasal turbinates / AUC0-3 h Pharyngeal lymph vessel / AUC0-3 h Deep lymph nodes: concentration or dose not given beside the values; settings: VEH (isotonic saline i.p.)
Method: Cisterna magna cannulation was performed as previously described with minor modifications (Xavier et al. J Vis Exp e57378-e57378 (2018)). Rats were anesthetized with a mixture of ketamine (100 mg/kg) and dexmedetomidine (0.5 mg/kg), administered subcutaneously in a volume of 2 ml/kg. After verification of loss of response to toe pinch, animals were placed in a stereotaxic frame and the neck slightly flexed (30°). The atlanto-occipital membrane overlying the cisterna magna was surgically exposed and a 30 G short-bevelled dental needle connected to PE10 tubing was carefully inserted into the intrathecal space. The catheter was fixed to the dura with cyanoacrylate glue and dental cement.
For post-operative analgesia, rats that were imaged for 24 hours received 5 mg/kg carprofen (Rimadyl® vet, 50 mg/mL, Orion Pharma, Espoo, Finland) s.c. at the beginning of surgery. Temperature was monitored and normothermia was maintained with a heating pad. […] The total volume of 32 μL was infused over 20 minutes. Five minutes before the AuNP infusion started, rats received either hypertonic saline (1 M, 20 mL/kg i.p.) or isotonic saline (0.154 M, 20 mL/kg i.p.). In the MRI experiments, all rats received a hypertonic saline injection, and the infusion rate of Gd-labelled nanoparticles was the same, but the total infusion volume was 80 μL.
Radioactivity of the infused dose was measured with VIK-202 dose calibrator (Comecer, Joure, The Netherlands). The Vector4CT (MILabs, Utrecht, Netherlands) system was used for SPECT/CT imaging. SPECT images were acquired with a high energy ultra high resolution rat 1.8 mm pinhole collimator (HE-UHR-RM 1.8 mm ph). Acquired images were reconstructed using Similarity-Regulated Ordered Subsets […] (SROSEM) with a voxel size of 0.6 mm and 5 iterations. Both decays at the 111-In photopeaks (±20%) and background at 20% outside each photopeak window) were individually used for the reconstruction. Two highly accurate energy dependent system matrices for iterative image reconstruction (SROSEM' Vaissier, P. E. B., Beekman, F. J. & Goorden, M. C. Similarity-regulation of OS-EM for accelerated SPECT reconstruction. Physics in Medicine and Biology 61, 4300-4315 (2016)) were used to minimize artifacts in ^111In imaging with high local uptake and no background activity in surrounding structures. In each matrix the effects of energy dependent pinhole penetration (calculated using a ray tracer, Goorden et al. Physics in Medicine and Biology 61, 3712-3733 (2016)) and intrinsic detector resolution with depth of interaction (DOI) effects in the crystal were modelled. The DOI effect was calculated using GATE Monte Carlo simulations (Jan, S. et al. Physics in Medicine and Biology 49, 4543-4561 (2004)) that was stored in tables and used in the raytracer. Matrices were generated for 171 keV and 245 keV photons and were used during the reconstruction from projections of the corresponding energy peaks. The resulting SPECT images were then added and averaged to obtain the final ^111In image. Head and full-body CT images were acquired directly after the SPECT scans in the same imaging session. SPECT data were attenuation corrected, decay corrected to the half-life of ^111In, and corrected for injected activity, with each voxel representing the percentage of the injected dose per cm^3 (%ID/cm^3).
Head and full-body CT images from each imaging session were nonlinearly registered using Advanced Normalization Tools (ANTs) to the appropriate population-based CT template (described below). Regions of interest (ROIs) were then either drawn manually in on individual CT images, manually in the template space, or were computed automatically in the case of the delineation between CSF and brain described below. Manual ROIs were drawn using ITK-SNAP software. Spherical ROIs (Ø 1.4 mm) for striatum and thalamus were placed using the in-house MRI template as reference. […]

- AUC0-3 h Brain [2]: 84.2 ± 13.6^c % ID · h
- AUC0-3 h CSF [2]: 40.2 ± 9.4 % ID · h
- AUC0-3 h Cervical spine [2]: 126.5 ± 30.32 % ID/cm^3 · h
- AUC0-3 h Deep lymph nodes [2]: 0.1 ± 0.1^f % ID/cm^3 · h
- AUC0-3 h Nasal turbinates [2]: 2.4 ± 1.4^b % ID/cm^3 · h
- AUC0-3 h Pharyngeal lymph vessel [2]: 0.5 ± 0.1^d % ID/cm^3 · h
- AUC0-3 h Striatum [2]: 4.5 ± 1.5 % ID/cm^3 · h
- AUC0-3 h Thalamus [2]: 7.5 ± 4.2^k % ID/cm^3 · h
- Peak tracer mass Brain [2]: 39.6 ± 4.3 % ID
- Peak tracer mass CSF [2]: 27.3 ± 3.5 % ID
- Peak tracer mass Intracranial [2]: 65.4 ± 6.0 % ID
- Peak tracer mass Striatum [2]: 4.3 ± 1.6 % ID/cm^3
- Peak tracer mass Thalamus [2]: 8.3 ± 3.1^n % ID/cm^3
- Residual after 3 h Brain [2]: 20.6 ± 5.0^g % ID
- Residual after 3 h CSF [2]: 4.9 ± 1.3 % ID
- Residual after 3 h Intracranial [2]: 25.5 ± 6.2 % ID
- AUC0-3 h Intracranial ([2]; intracisternal infusion, rats): 124.4 ± 22.5 % ID · h
Compound: O=C(O)CN1CCN(CC(=O)O)CCN(CC(=O)NCCNC(=O)CCCCC2CCSS2)CCN(CC(=O)O)CC1 (stereo not drawn) [^111In-LA-DOTA, 2,2′,2″-(10-(2-((2-(5-(1,2-dithiolan-3-yl)pentanamido)ethyl)amino)-2-oxoethyl)-1,4,7,10-tetraazacyclododecane-1,4,7-triyl)triacetic acid, metal not drawn]
- stability of the chelate (release of ^111In from the chelator) [1]: stable; also recorded: did not result in appreciable destabilization
